What all share (assay): Test H postemergence mixture test of compound 39 with commercial herbicides, observed and Colby expected effect 0-100
What all share (assay type): in vivo
Common to all, as to conditions: Cmpd 39 alone, 14 days after treatment

The subject of assay [1] is soybean (GLXMA, Glycine max). The text has this:
(§1) This test evaluated the effect of mixtures of compound 39 with three commercial herbicides on five plant species. Seeds of plant species selected from corn (ZEAMD, Zea mays), soybean (GLXMA, Glycine max), palmer pigweed (AMAPA, Amaranthus palmeri), waterhemp (common waterhemp, AMATA, Amaranthus rudis), and Kochia (KCHSC, Kochia scoparia) were planted in pots containing Redi-Earth® planting medium (Scotts Company, 14111 Scottslawn Road, Marysville, Ohio 43041) comprising spaghnum peat moss, vermiculite, wetting agent and starter nutrients and treated with postemergence applications of test chemicals formulated in a non-phytotoxic solvent mixture which included a surfactant and applied using a volume of 299 L/ha. Each treatment was replicated four times. Treated plants and controls were maintained in a greenhouse using supplemental lighting to maintain a photoperiod of about 16 h; daytime and nighttime temperatures were about 24-30° C. and 19-21° C., respectively. Nutrients were applied using a balanced fertilizer applied through the watering system. At 14 days after treatment, all species were compared to controls and visually evaluated. Plant response ratings were calculated as the mean of the four replicates, are summarized in Tables H1 through H6, and are based on a scale of 0 to 100 where 0 is no effect and 100 is complete control. A dash (-) response means no test result.
(§2) Colby's Equation was used to determine the herbicidal effects expected from the mixtures. Colby's Equation (Colby, S. R. “Calculating Synergistic and Antagonistic Responses of Herbicide Combinations,” Weeds, 15(1), pp 20-22 (1967)) calculates the expected additive effect of herbicidal mixtures and for two active ingredients is of the form: Pa+b=Pa+Pb−(PaPb/100) • where • Pa+b is the percentage effect of the mixture expected from additive contribution of the individual components: • Pa is the observed percentage effect of the first active ingredient at the same use rate as in the mixture, and • Pb is the observed percentage effect of the second active ingredient at the same use rate as in the mixture. In the following Tables, rates are shown in grams of active ingredient per hectare (g a.i./ha); “Obsd.” is the observed effect. “Exp.” is the expected effect calculated from Colby's Equation.

In assay [2] the test system is Kochia (KCHSC, Kochia scoparia).
Text: as §1, §2

Assay [3] concerns palmer pigweed (AMAPA, Amaranthus palmeri).
Text: as §1, §2

The subject of assay [4] is corn (ZEAMD, Zea mays).
Text: as §1, §2

The subject of assay [5] is waterhemp (common waterhemp, AMATA, Amaranthus rudis).
Text: as §1, §2

“And” between values parts separate entries of the source, which are not always exact repeats. Identical values can stand only once.

`C#CCn1cc(C(=O)c2ccccc2)c(-c2cc(Cl)cc(Cl)c2)n1` [Compound 39, [3-(3,5-dichlorophenyl)-1-(2-propyn-1-yl)-1H-pyrazol-4-yl]phenylmethanone]: the “GLXMA Obsd. (observed effect)” value in assay [1] (16 g a.i./ha), in assay [1] (31 g a.i./ha) and in assay [1] (62 g a.i./ha) was 0 each time. In addition, the “KCHSC Obsd. (observed effect)” value in assay [2] (16 g a.i./ha) was 47; in assay [2] (31 g a.i./ha), 60 and 47; in assay [2] (62 g a.i./ha) it was 64. The “AMAPA Obsd. (observed effect)” value in assay [3] (16 g a.i./ha) is 55; in assay [3] (31 g a.i./ha) it was 86 and 78; in assay [3] (62 g a.i./ha) it was 79 and 76. Also, the “ZEAMD Obsd. (observed effect)” value in assay [4] (16 g a.i./ha), in assay [4] (31 g a.i./ha) and in assay [4] (62 g a.i./ha) was 0 in each case. Further, the “AMATA Obsd. (observed effect)” value in assay [5] (16 g a.i./ha) was 75; in assay [5] (31 g a.i./ha) it was 88 and 83; in assay [5] (62 g a.i./ha) it was 79.

The values above are taken from US10167262B2, “Herbicidal substituted 3-arylpyrazoles” (FMC CORPORATION, priority 2014, dated 2019).
